Measurements from patent US10568892B2, “Cycloartane tetracyclic triterpenoid compound, preparation method therefor and use thereof” (Hefei Cosource Pharmaceuticals Inc., priority 2016, dated 2020).
Like-named read-outs stand apart in the source and are kept apart here.

Key:
SD rat = assay: Rat model of heart failure induced by adriamycin; assay type: in vivo
Procedure: 2 mg/kg of adriamycin was injected through tail vein to a SD rat for modeling, once a week for 6 weeks. After the modeling was completed, intragastrical administration of Compound 369 at low (3 mg/kg) and high (9 mg/kg) doses was carried out daily for 4 weeks. In the negative control group, the same volume of normal saline was injected through the tail vein once a week for 6 weeks, thereafter the same volume of vehicle was intragastrically administrated daily for 4 weeks. After the end of the administration, the blood pressure was measured by the carotid artery intubation. The left ventricular end diastolic pressure (LVEDP), left ventricular systolic pressure (LVSP), maximal rate of left ventricular systolic pressure (+dp/dt max), and maximal rate of left ventricular diastolic pressure (−dp/dt max) were recorded, and the average values thereof were calculated.
After the hemodynamic indexes were measured, the chest was opened and the heart and lung were quickly taken out. They were immediately placed in the normal saline at 4° C. to wash down the remaining blood. The fats, blood vessels and atrial tissues on the heart were discarded. The heart was sucked dry by the filter paper, and accurately weighed using the electronic balance to record the heart weight. The ratio of heart weight to body weight (HW/BW), i.e., the heart mass index (HMI), was calculated.

[1] = Single-dose toxicity (MTD) in SD rats; assay type: in vivo; details: in vivo, SD rat, read-out: Maximum tolerance dose (MTD)
Excerpt: The results of the experimental study on the toxicity of Compound 369 administrated through a single intravenous or intragastrical administration in SD rats and KM mice are shown in Table 9.

SD rats = assay: Rat myocardial ischemia model with coronary artery ligation and reperfusion (arrhythmia incidence); assay type: in vivo; details: for Death (%) / Death n / Ventricular fibrillation (%) / Ventricular fibrillation n / Ventricular premature beat (%) / Ventricular premature beat n / Ventricular tachycardia (%) / Ventricular tachycardia n: injection (sublingually) 5 min before ischemia
Excerpt: Method: SD rats were anesthetized with pentobarbital, and a cervical midline incision was made to separate and cut off the trachea such that it was connected to a respirator. The skin was cut along the midline of the left clavicle of the rat, and the chest was opened between the left third and fourth ribs to gently squeeze out the heart. The pericardium was opened, the needle was inserted at the left edge of the pulmonary artery cone and 2 mm at the lower edge of the left atrial appendage. The 6-0 non-invasive suture was threaded through the superficial myocardium, with the left anterior descending coronary artery (LAD) located thereon. After stabilization for 5 min, a double-layer plastic cannula was put on, and the cable tie was tighten to complete the myocardial ischemia induced by left coronary artery occlusion. The criterion for myocardial ischemia is the occurrence of myocardial infarction (St-segment ran up or T-wave was shown as high sharp wave) in the electrocardiogram and the presence of local cyanosis in the heart. After 5 min of myocardial ischemia, the inner cannula was withdrawn, that is, the wire knot was released for reperfusion, and the electrocardiogram of reperfusion in the rat was recorded.
The administration was performed at 5 min before the ischemia by coronary artery ligation, and the administration mode was injection administration (sublingually).

guinea pig heart = assay: Atrial fibrillation induced by high- and low-potassium Langendorff perfusion of the guinea pig heart; details: for Incidence (%) of atrial fibrillation / Number of animals developing atrial fibrillation: within 60 min of low-potassium perfusion
Excerpt: Method: a total of 24 guinea pigs were divided into 4 groups according to body weight, and were sacrificed. The heart was quickly taken out, and the blood was squeezed in the ice bath perfusion solution. The heart was quickly transferred in the Langendorff perfusion system, and the perfusion at a constant rate was started by turning on the oxygen-saturated perfusate. One end of the electrode was placed at the cardiac apex, and one end was placed at the right atrium (the position of the atrial appendage). The electrocardiogram was recorded on the computer.
After the heart was stabilized, 10 min after the perfusion of high-K perfusate, blank vehicle, 0.1 μM, 1 μM, and 10 μM of Compound 369, 1 μM Amiodarone and Cyclovirobuxine D were simultaneously administrated and the high K perfusion was continued for 20 min, respectively. Then, the high K perfusion was removed to administrate the low-K perfusate, and the electrocardiogram was obtained at the same time to record whether there was atrial fibrillation within 60 min of low-potassium perfusion.

[2] = High dose 9 mg/kg intragastrical daily for 4 weeks
[3] = Low dose 3 mg/kg intragastrical daily for 4 weeks

**Q.** With `CN[C@H]1CC[C@]23C[C@]24CC[C@]2(C)C(C(C)=O)=CC[C@@]2(C)[C@@H]4CC[C@H]3C1(C)C` [Compound 369, (3β,5α)-4,4,14-trimethyl-3-(methylamino)-9,19-cyclopregnan-16-en-20-one] as the compound, how does the “Therapeutic effect on heart failure induced by adriamycin (in words)” value (SD rat; 3 and 9 mg/kg intragastrical daily for 4 weeks) read?
**A.** a certain therapeutic effect

**Q.** And the ADBP (SD rat; [2])?
**A.** 47.0 ± 17.1 mmHg

**Q.** And the ASBP (SD rat; [2])?
**A.** 84.9 ± 13.3 mmHg

**Q.** What about the BW (SD rat; [2]) of the same compound?
**A.** 380.3 ± 24.8 g

**Q.** What about the HW (SD rat; [2]) of the same compound?
**A.** 1185.0 ± 135.3 mg

**Q.** What about the HW/BW (SD rat; [2]) of the same compound?
**A.** 3.11 mg/g

**Q.** What about the LVEDP (SD rat; [2]) of the same compound?
**A.** −14.2 ± 8.8 mmHg

**Q.** What about the LVSP (SD rat; [2]) of the same compound?
**A.** 97.3 ± 8.9 mmHg

**Q.** What about the dp/dtmax (SD rat; [2]) of the same compound?
**A.** 2402.3 ± 427.6 mmHg/s

**Q.** What about the “−dp/dt max” value (SD rat; [2]) of the same compound?
**A.** −2098.7 ± 345.9 mmHg/s

**Q.** What about the ADBP (SD rat; [3]) of the same compound?
**A.** 40.4 ± 15.3 mmHg

**Q.** What about the ASBP (SD rat; [3]) of the same compound?
**A.** 80.8 ± 17.3 mmHg

**Q.** And the BW (SD rat; [3])?
**A.** 308.5 ± 34.65 g

**Q.** What about the HW (SD rat; [3]) of the same compound?
**A.** 1007.4 ± 145.3 mg

**Q.** And the HW/BW (SD rat; [3])?
**A.** 3.27 mg/g

**Q.** And the LVEDP (SD rat; [3])?
**A.** −12.7 ± 10.0 mmHg

**Q.** And the LVSP (SD rat; [3])?
**A.** 96.5 ± 9.1 mmHg

**Q.** What about the dp/dtmax (SD rat; [3]) of the same compound?
**A.** 2317.7 ± 715.4 mmHg/s

**Q.** What about the “−dp/dt max” value (SD rat; [3]) of the same compound?
**A.** −2013.5 ± 405.4 mmHg/s

**Q.** And the MTD ([1]; po, single intragastrical administration)?
**A.** 1000 mg/kg

**Q.** And the MTD ([1]; single intravenous injection)?
**A.** 45 mg/kg

**Q.** And the “Death (%)” value (SD rats; 1 mg/kg)?
**A.** 38%

**Q.** And the Death n (SD rats; 1 mg/kg)?
**A.** 3

**Q.** What about the “Ventricular fibrillation (%)” value (SD rats; 1 mg/kg) of the same compound?
**A.** 63%

**Q.** What about the Ventricular fibrillation n (SD rats; 1 mg/kg) of the same compound?
**A.** 5

**Q.** And the “Ventricular premature beat (%)” value (SD rats; 1 mg/kg)?
**A.** 100%

**Q.** What about the “Ventricular premature beat n” value (SD rats; 1 mg/kg) of the same compound?
**A.** 8

**Q.** And the “Ventricular tachycardia (%)” value (SD rats; 1 mg/kg)?
**A.** 100%

**Q.** What about the Ventricular tachycardia n (SD rats; 1 mg/kg) of the same compound?
**A.** 8

**Q.** And the “Death (%)” value (SD rats; 10 mg/kg)?
**A.** 0 (0) %

**Q.** And the Death n (SD rats; 10 mg/kg)?
**A.** 0 (0)

**Q.** And the “Ventricular fibrillation (%)” value (SD rats; 10 mg/kg)?
**A.** 14%

**Q.** What about the Ventricular fibrillation n (SD rats; 10 mg/kg) of the same compound?
**A.** 1

**Q.** And the “Ventricular premature beat (%)” value (SD rats; 10 mg/kg)?
**A.** 86%

**Q.** What about the “Ventricular premature beat n” value (SD rats; 10 mg/kg) of the same compound?
**A.** 6

**Q.** What about the “Ventricular tachycardia (%)” value (SD rats; 10 mg/kg) of the same compound?
**A.** 71%

**Q.** And the Ventricular tachycardia n (SD rats; 10 mg/kg)?
**A.** 5

**Q.** And the “Death (%)” value (SD rats; 30 mg/kg)?
**A.** 0 (0) %

**Q.** And the Death n (SD rats; 30 mg/kg)?
**A.** 0 (0)

**Q.** And the “Ventricular fibrillation (%)” value (SD rats; 30 mg/kg)?
**A.** 0 (0) %

**Q.** And the Ventricular fibrillation n (SD rats; 30 mg/kg)?
**A.** 0 (0)

**Q.** And the “Ventricular premature beat (%)” value (SD rats; 30 mg/kg)?
**A.** 83%

**Q.** And the “Ventricular premature beat n” value (SD rats; 30 mg/kg)?
**A.** 5

**Q.** What about the “Ventricular tachycardia (%)” value (SD rats; 30 mg/kg) of the same compound?
**A.** 17%

**Q.** What about the Ventricular tachycardia n (SD rats; 30 mg/kg) of the same compound?
**A.** 1

**Q.** And the “Numbers of animals (incidences) with ventricular premature beat, ventricular tachycardia, ventricular fibrillation, and death vs vehicle (in words)” value (SD rats; 1 to 30 mg/kg, dose-response relationship)?
**A.** lower

**Q.** What about the “Number of animals developing atrial fibrillation compared to the vehicle group (in words)” value (guinea pig heart; 0.1 μM to 10 μM, dose-dependent) of the same compound?
**A.** significantly decreased

**Q.** And the “Incidence (%) of atrial fibrillation” value (guinea pig heart; 0.1 μM)?
**A.** 80%

**Q.** And the “Number of animals developing atrial fibrillation” value (guinea pig heart; 0.1 μM)?
**A.** 4

**Q.** What about the “Incidence of atrial fibrillation for ex vivo heart vs cyclovirobuxine D (in words)” value (guinea pig heart; 1 μM) of the same compound?
**A.** significantly lower

**Q.** What about the “Incidence (%) of atrial fibrillation” value (guinea pig heart; 1 μM) of the same compound?
**A.** 33%

**Q.** What about the “Number of animals developing atrial fibrillation” value (guinea pig heart; 1 μM) of the same compound?
**A.** 2

**Q.** What about the “Incidence (%) of atrial fibrillation” value (guinea pig heart; 10 μM) of the same compound?
**A.** 0%

**Q.** What about the “Number of animals developing atrial fibrillation” value (guinea pig heart; 10 μM) of the same compound?
**A.** 0
